Results taken from patent publication US6410792B1, “Amide derivatives and methods for using the same as selective neuropeptide Y receptor antagonists” (Bayer Corporation, priority 1997, dated 2002).
Structures can show the parent of a compound that is named as a salt.

Experiments:
Y2 receptor = biological target: T1, Y2 receptor (Homo sapiens, UniProt P49146); assay: Y2 receptor binding assay ([125I]PYY, membrane protein); details: [125I]PYY, membrane protein; read-out: hNPY2 IC50
T1 sequence (P49146 1-381): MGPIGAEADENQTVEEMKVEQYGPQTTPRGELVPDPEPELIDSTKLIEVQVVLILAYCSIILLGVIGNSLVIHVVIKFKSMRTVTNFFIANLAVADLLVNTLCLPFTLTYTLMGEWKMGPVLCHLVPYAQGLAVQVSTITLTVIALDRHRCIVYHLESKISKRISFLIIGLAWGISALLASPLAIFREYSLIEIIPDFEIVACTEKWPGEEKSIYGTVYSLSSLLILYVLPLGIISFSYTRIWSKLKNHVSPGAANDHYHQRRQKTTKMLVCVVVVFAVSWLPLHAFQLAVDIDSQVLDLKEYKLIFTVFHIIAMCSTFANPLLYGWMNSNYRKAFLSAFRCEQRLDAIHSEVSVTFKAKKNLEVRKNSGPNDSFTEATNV
Method in brief: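 Filtration binding with membrane protein and drug dilution, 2 h at room temperature with mixing, radioactivity counted by gamma or scintillation. Y2: 25 pM [125I]PYY in Krebs-Ringer bicarbonate pH 7.4 with 0.01% BSA, nonspecific by 1 μM NPY. Y4/PP1: 50 pM [125I]hPP in HEPES-buffered saline pH 7.4 with protease inhibitors and 0.3% BSA, nonspecific by 1 μM hPP.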

human Y4/PP1 receptor = human Y4/PP1 receptor (Homo sapiens, UniProt P50391); assay: Human Y4/PP1 receptor binding assay ([125I]human PP, membrane protein); details: [125I]human PP, membrane protein; read-out: hNPY4 IC50
Procedure: B. Human Y2 and Y4/PP1 Receptor Binding Assays
Binding assays were performed on GF/C Millipore 96-well plates pretreated with 0.02% polyethylenimine. The binding buffer for rat Y2 binding is Krebs-Ringer bicarbonate (pH 7.4) containing 0.01% BSA and 0.005% bacitracin. Samples consist of membrane protein, 25 pM [1251]PYY and drug dilution. Nonspecific binding is defined by 1 μM NPY. The binding buffer for human Y4/PP1 binding consists of 137 mM NaCl, 5.4 mM KCl, 0.44 mM KH2PO4, 1.26 mM CaCl2, 0.81 mM MgSO4, 20 mM HEPES, 1 mM dithiothreitol, 0.1% bacitracin, 100 mg/l streptomycin sulfate, 1 mg/l aprotinin, 10 mg/ml soybean trypsin inhibitor and 0.3% BSA, pH 7.4. Samples consist of membrane protein, 50 pM human [1251]human PP (hPP: NEN DuPont, Boston, Mass.) and drug dilution. 1 μM hPP is used to define nonspecific binding.
After a 2 hour incubation at room temperature with constant mixing, the samples are aspirated on a vacuum manifold, and rinsed with ice-cold binding buffer. The amount of radioactivity in each well is quantitated with either gamma counting or liquid scintillation.

Human NPY5 receptor = biological target: T2, Human NPY5 receptor (Homo sapiens, UniProt Q15761); assay: Human NPY5 receptor binding assay ([125I]PYY, membrane protein); details: [125I]PYY, read-out: hNPY5 IC50
T2 sequence (Q15761 1-445): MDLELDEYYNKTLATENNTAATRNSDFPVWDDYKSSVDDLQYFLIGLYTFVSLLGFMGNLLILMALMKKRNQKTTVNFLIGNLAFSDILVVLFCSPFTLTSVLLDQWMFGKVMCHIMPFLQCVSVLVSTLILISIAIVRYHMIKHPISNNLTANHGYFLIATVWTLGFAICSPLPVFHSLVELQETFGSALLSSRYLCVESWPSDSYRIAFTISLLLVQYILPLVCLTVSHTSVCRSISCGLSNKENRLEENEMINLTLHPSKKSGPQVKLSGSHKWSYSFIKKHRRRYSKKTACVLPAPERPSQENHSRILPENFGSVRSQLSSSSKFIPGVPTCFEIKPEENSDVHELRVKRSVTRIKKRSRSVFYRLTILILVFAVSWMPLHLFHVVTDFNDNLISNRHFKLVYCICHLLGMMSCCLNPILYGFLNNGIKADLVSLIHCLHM
Method in brief: (§1)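 First, membrane protein, drug dilution and 75-100 pM [125I]PYY were combined in pH 7.4 Tris saline buffer containing divalent cations and 0.1% BSA. Next, samples were mixed 2 hours at room temperature. Finally, samples were filtered, washed ice-cold and counted; 1 μM PYY gave nonspecific binding.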

Rat NPY5 receptor = biological target: T3, Rat NPY5 receptor (Rattus norvegicus, UniProt Q63634); assay: Rat NPY5 receptor binding assay ([125I]PYY, membrane protein); details: [125I]PYY, read-out: rNPY5 IC50
T3 sequence (Q63634 1-445): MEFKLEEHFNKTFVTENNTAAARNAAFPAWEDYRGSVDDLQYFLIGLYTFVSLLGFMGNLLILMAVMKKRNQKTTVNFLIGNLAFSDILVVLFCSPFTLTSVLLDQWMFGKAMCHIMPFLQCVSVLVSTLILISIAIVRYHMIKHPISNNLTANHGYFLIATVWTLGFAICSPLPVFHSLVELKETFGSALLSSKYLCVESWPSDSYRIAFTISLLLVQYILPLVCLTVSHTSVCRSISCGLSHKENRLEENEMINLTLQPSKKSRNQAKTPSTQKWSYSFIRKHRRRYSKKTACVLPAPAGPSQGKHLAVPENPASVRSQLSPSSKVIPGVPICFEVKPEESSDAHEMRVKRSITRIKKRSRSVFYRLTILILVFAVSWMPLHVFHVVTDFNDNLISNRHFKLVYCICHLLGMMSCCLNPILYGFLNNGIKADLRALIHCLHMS
Method in brief: as §1

Human NPY1 receptor = biological target: T4, Human NPY1 receptor (Homo sapiens, UniProt P25929); assay: Human NPY1 receptor binding assay ([125I]PYY, SK-N-MC cells); details: [125I]PYY, SK-N-MC cells; read-out: hNPYI IC50
T4 construct: host or cells: SK-N-MC cells
T4 sequence (P25929 1-384): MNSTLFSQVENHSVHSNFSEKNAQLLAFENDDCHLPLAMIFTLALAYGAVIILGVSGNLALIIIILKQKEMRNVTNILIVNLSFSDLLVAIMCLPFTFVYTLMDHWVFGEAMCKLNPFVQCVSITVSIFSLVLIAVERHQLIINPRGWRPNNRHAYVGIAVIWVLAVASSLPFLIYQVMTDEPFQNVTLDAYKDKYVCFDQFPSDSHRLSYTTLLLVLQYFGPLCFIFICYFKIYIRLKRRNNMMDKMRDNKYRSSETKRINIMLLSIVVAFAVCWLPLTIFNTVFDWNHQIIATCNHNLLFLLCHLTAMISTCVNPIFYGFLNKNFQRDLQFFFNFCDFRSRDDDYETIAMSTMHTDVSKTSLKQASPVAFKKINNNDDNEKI
Procedure: A. Human NPY1 Receptor Binding Assay
This is a modification of Gordon et al., (J. Neurochem. 55:506-513, 1990). SK-N-MC cell (ATCC, Rockville, Md.) were plated in 24-well plates. Once confluent, cells were rinsed with Dulbecco's phosphate buffered saline (DPBS). Cells were then preincubated in binding buffer containing serum-free DMEM, 25 mM HEPES (pH 7.3), 0.5% bovine serum albumin (BSA), 0.1% bacitracin and 0.1 mM phenylmethylsulfonylfluoride for 30 minutes at room temperature. Drug dilution and [125I]PYY (˜50 pM: NEN-DuPont) were added to the wells, and the cells were incubated for an additional 3 hours at room temperature, followed by rinsing with ice-cold DPBS. Nonspecific binding was defined with 1 μM NPY. After lysing the cells with 1% Triton X-100, the amount of radioactivity in the lysates was quantitated with a gamma counter.

human Y4/PP1 receptor, sequence (P50391 whole entry): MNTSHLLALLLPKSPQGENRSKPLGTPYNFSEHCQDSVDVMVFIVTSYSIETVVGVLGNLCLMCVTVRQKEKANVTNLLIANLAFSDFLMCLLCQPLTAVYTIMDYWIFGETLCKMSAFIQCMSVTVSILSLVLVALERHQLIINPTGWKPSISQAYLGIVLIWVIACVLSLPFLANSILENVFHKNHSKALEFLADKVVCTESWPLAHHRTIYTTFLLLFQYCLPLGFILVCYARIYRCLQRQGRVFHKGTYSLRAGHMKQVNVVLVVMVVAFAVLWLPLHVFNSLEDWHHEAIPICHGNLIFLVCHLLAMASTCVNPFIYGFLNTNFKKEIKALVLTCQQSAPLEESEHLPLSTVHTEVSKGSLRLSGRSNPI

Row | Structure (SMILES) | melting point [°C] | IC50 (Y2 receptor) [µM] | IC50 (human Y4/PP1 receptor) [µM] | IC50 (Human NPY5 receptor) [µM] | IC50 (Rat NPY5 receptor) [µM] | IC50 (Human NPY1 receptor) [µM]
1 | O.O=C(CN1CCC(n2c(=O)[nH]c3ccccc32)CC1)Nc1ccc(-c2cnco2)cc1 (hydrate or solvate) [Compound 267, N-(4-Oxazol-5-yl-phenyl)-2-[4-(2-oxo-2,3-dihydro-benzoimidazol-1-yl)-piperidin-1-yl]-acetamide; hydrate] | 177 to 178 |  |  |  |  | 
2 | Cl.O=C(CN1CCC(C(=O)c2ccc(F)cc2)CC1)Nc1ccc(C2CCCCC2)cc1 [Compound 292, N-(4-Cyclohexyl-phenyl)-2-[4-(4-fluoro-benzoyl)-piperidin-1-yl]-acetamide; hydrochloride] | 258 | > 5 | > 5 | 0.11 | 0.084 | 
3 | O=C(CN1CCC(n2c(=O)[nH]c3ccccc32)CC1)NCC1CCCO1 (stereo not shown) [Compound 285, 2-[4-(2-Oxo-2,3-dihydro-benzoimidazol-1-yl)-piperidin-1-yl]-N-(tetrahydro-furan-2-ylmethyl)-acetamide] | 179 to 180 | > 5 | > 5 |  |  | 
4 | Cl.O=C(CN1CCC(n2c(=O)[nH]c3ccccc32)CC1)Nc1cccc2c1C(=O)c1ccccc1-2 [Compound 307, 2-[4-(2-Oxo-2,3-dihydro-benzoimidazol-1-yl)-piperidin-1-yl]-N-(9-oxo-9H-fluoren-1-yl)-acetamide; hydrochloride] | 204 | > 5 | > 5 |  |  | 
5 | O=C(CN1CCC(n2c(=O)[nH]c3ccccc32)CC1)N1CCCCCC1 [Compound 309, 1-[1-(2-Azepan-1-yl-2-oxo-ethyl)-piperidin-4-yl]-1,3-dihydro-benzoimidazol-2-one] | 166 | > 5 | > 5 |  |  | 
6 | O=C(CNCCCn1c(=O)[nH]c2ccccc21)Nc1ccc(-c2ccccc2)cc1 [Compound 277, N-Biphenyl-4-yl-2-[3-(2-oxo-2,3-dihydro-benzoimidazol-1-yl)-propylamino]-acetamide] |  | > 5 | > 5 | 0.89 | 1.6 | > 5
7 | Cl.O=C(CN1CCC(n2c(=O)[nH]c3ccccc32)CC1)N1CCCCCCC1 [Compound 305, 1-[1-(2-Azocan-1-yl-2-oxo-ethyl)-piperidin-4-yl]-1,3-dihydro-benzoimidazol-2-one; hydrochloride] | 158 | > 5 | > 5 |  |  | 
8 | CC(C)OCCCNC(=O)CN1CCC(n2c(=O)[nH]c3ccccc32)CC1 [Compound 289, N-(3-Isopropoxy-propyl)-2-[4-(2-oxo-2,3-dihydro-benzoimidazol-1-yl)-piperidin-1-yl]-acetamide] | 67 to 68 |  |  |  |  | 
9 | O=C(CN1CCC(n2c(=O)[nH]c3ccccc32)CC1)NC1CCCC1.O=C(O)C(=O)O [Compound 288, N-Cyclopentyl-2-[4-(2-oxo-2,3-dihydro-benzoimidazol-1-yl)-piperidin-1-yl]-acetamide; compound with oxalic acid] | 217 to 218 | > 5 | > 5 |  |  | 
10 | CC(C(=O)Nc1ccc(-c2ccccc2)cc1)N1CCC(n2c(=O)[nH]c3ccccc32)CC1 (stereo not shown) [Compound 329, N-Biphenyl-4-yl-2-[4-(2-oxo-2,3-dihydro-benzoimidazol-1-yl)-piperidin-1-yl]-propionamide; hydrochloride] |  | > 5 | > 5 | 0.02 | 0.016 | > 5

More lines, now with the values ahead:

Row | melting point [°C] | IC50 (Y2 receptor) [µM] | IC50 (human Y4/PP1 receptor) [µM] | IC50 (Human NPY5 receptor) [µM] | IC50 (Rat NPY5 receptor) [µM] | IC50 (Human NPY1 receptor) [µM] | Structure (SMILES)
11 |  | > 5 | > 5 | 0.2 | 0.19 | > 5 | O=C(CN1CCC(n2c(=O)[nH]c3ccccc32)CC1)Nc1ccc([N+](=O)[O-])cc1 [Compound 355, N-(4-Nitro-phenyl)-2-[4-(2-oxo-2,3-dihyro-benzoimidazol-1-yl)-piperidin-1-yl]-acetamide, reference compound]
12 |  | > 5 | > 5 | 0.58 | 0.979 | > 5 | CC(=O)Nc1ccc(NC(=O)CN2CCC(n3c(=O)[nH]c4ccccc43)CC2)cc1 [Compound 351, N-(4-Acetylamino-phenyl)-2-[4-(2-oxo-2,3-dihydro-benzoimidazol 1-yl)-piperidin-1-yl]-acetamide, reference compound]
13 |  | > 5 | > 5 | 1.2 | > 10 | > 5 | O=C(CN1CCC(n2c(=O)[nH]c3ccccc32)CC1)Nc1ccccc1Cl [Compound 348, N-(2-Chloro-phenyl)-2-[4-(2-oxo-2,3-dihydro-benzoimidazol-1-yl)-piperidin-1-yl]-acetamide, reference compound]
14 |  | > 5 | > 5 | 0.41 | 0.539 | > 5 | COc1ccc(NC(=O)CN2CCC(n3c(=O)[nH]c4ccccc43)CC2)cc1 [Compound 361, N-(4-Methoxy-phenyl)-2-[4-(2-oxo-2,3-dihydro-benzoimidazol-1-yl)-piperidin-1-yl]-acetamide, reference compound]
